Measurements: EP2012792B1, “USE OF A COMPOUND INDUCING AN INCREASE OF FREE SEROTONIN RATE IN THE BODY, FOR PREPARING A MEDICINE FOR TREATING SKELETAL MUSCLE DEGENERATION OF GENETIC ORIGIN” (Association Française contre les Myopathies, priority 2006, dated 2007)
Counter-ions that a name gives are not always drawn.

What was measured:
[1] = test system: souche de nématode dépourvue de dystrophine; test: Muscle degeneration and paralysis test in dystrophin-deficient nematode strain (degenerative myopathy model); format: in vivo, Caenorhabditis elegans; conditions: 7 days of culture at 15°C; for Diminution de la dégénérescence en %: untreated = 0; for Pourcentage d'animaux paralysés à J7: untreated = 100
Method: Les composés ont été testés sur une souche de nématode dépourvue de dystrophine (Gieseler et al., Current Biology, 2000, vol. 10, p1092-1097) et (Ségalat, Neuromuscular Disorders, 2002, Suppl: S105-9). Cette souche est utilisée comme modèle de myopathie dégénérative. Dans cette souche, jusqu'à 30% des cellules musculaires servant à la locomotion (muscles longitudinaux) dégénèrent à l'état adulte (7 jours à 15°C), ce qui se traduit par une paralysie progressive des animaux.
Les composés sont administrés par mélange avec la gélose sur laquelle sont cultivés les animaux. Ils pénètrent par diffusion à travers la cuticule des animaux.
L'effet des composés sur la dégénérescence musculaire est évalué par 1) l'observation du phénotype des animaux (paralysie), et 2) par l'examen cytologique de la dégénérescence musculaire au moyen de marqueurs musculaires : rodamine-phalloidine et anticorps anti-myosine. Cet examen permet de compter le nombre de cellules musculaires en dégénérescence ou mortes (Gieseler et al., 2000, supra).

[2] = test system: souris mdx (génotype C57/BL6 mdx5cv); test: mdx mouse: number of centronucleated fibres (test of Shavlakadze et al.); format: in vivo; conditions: p<0,1%
Method: (§1) J. Pathol. […] 2002 Aug; 444(5), 634-43. […] 2000 Sep; 11(9), 725-8.
(§2) Elles sont testées à 6 semaines.
(§3) Il a également été démontré que la Fluoxetine chlorhydrate (11 mg/kg/jour), réduit le nombre de fibres centronucléées de 20% environ (p<0,1%).

[3] = test system: protéolyse du muscle de C. elegans; test: Muscle proteolysis model of C. elegans representative of cachexia (protocol of Zdinak et al.); format: in vivo; conditions: relative to control; concentration not given
Text: c) Concernant l'action sur la cachexie, il a également pu être montré sur un modèle de protéolyse du muscle de C. elegans representatif de la cachexie, et en utilisant le protocole décrit par Zdinak et al., dans Transgene-coded chimeric proteins as reporters of intracellular proteolysis: starvation-induced catabolism of a lacZ fusion protein in muscle cells of Caenorhabditis elegans, J Cell Biochem. 1997 Oct 1;67(1):143-53 que la sérotonine et l'imipramine chlorhydrate réduisent fortement cette protéolyse (20% de la protéolyse du témoin dans les 2 cas).

[4] = test system: souris mdx (génotype C57/BL6 mdx5cv); conditions: 40mg/jour/kg oral in food, treated from 2 to 6 weeks of age
Text: Les tests effectués chez la souris sont de plusieurs types : histologiques, fonctionnels sur l'animal entier, et fonctionnels sur muscles disséqués. Les tests sont effectués sur la souris mdx (génotype C57/BL6 mdx5cv), modèle murin de myopathie dégénérative. Ces tests sont notamment détaillés dans les publications suivantes auxquelles on pourra se référer : • De Luca A, et al. Am. J. Pathol. 2005 Feb; 166(2), 477-89. • Divet A, et al. Pflugers Arch. 2002 Aug; 444(5), 634-43. Epub 2002 Jul 10. • Rafael JA, et al. Mamm Genome. 2000 Sep; 11(9), 725-8.
Les composés sont administrés oralement aux souris dans leur nourriture. Les souris sont traitées de l'âge de 2 semaines à 6 semaines. Elles sont testées à 6 semaines.

[5] = test system: souris mdx (génotype C57/BL6 mdx5cv); test: mdx mouse: histology, fibre size dispersion; format: in vivo; conditions: 40mg/jour/kg oral in food, treated from 2 to 6 weeks of age, tested at 6 weeks; versus untreated animals
Text: as §1, §2

[6] = test system: souris mdx (génotype C57/BL6 mdx5cv); test: mdx mouse: diaphragm necrosis (test of Raymackers et al.); format: in vivo; conditions: 15 mg/kg/jour oral in food; p<5%
Method: as §1, §2, §3

[7] = 0,05 mg/ml (0,15 mM) in culture agar
[8] = 4 mg/ml (10 mM) in culture agar
[9] = 0,1 mg/ml (0,3 mM) in culture agar
[10] = 0,1 mg/ml (0,2 mM) in culture agar

`CNCCC(Oc1ccc(C(F)(F)F)cc1)c1ccccc1` (stereo not shown) [Fluoxetine chlorhydrate, fluoxétine] was tested, and the “Diminution de la dégénérescence en %” value [1, 7] was 51%, the “Pourcentage d'animaux paralysés à J7” value [1, 7] was 60% and the “réduction du nombre de fibres centronucléées” value ([2]; 11 mg/kg/jour oral in food) was ~20%.

`NCCc1c[nH]c2ccc(O)cc12` [Sérotonine, 5-hydrotryptamine] was tested, and the protéolyse [3] was 20 % de la protéolyse du témoin, the “Diminution de la dégénérescence en %” value [1, 8] was 73% and the “Pourcentage d'animaux paralysés à J7” value [1, 8] was 41%. The dégénérescence musculaire ([1]; result in words) was “diminue également la dégénérescence musculaire”.

In the case of `CNCCCN1c2ccccc2CCc2ccccc21` [Desipramine chlorhydrate, désipramine], the “Diminution de la dégénérescence en %” value [1, 9] is reported as 58% and the “Pourcentage d'animaux paralysés à J7” value [1, 9] is reported as 58%.

For `CN(C)CCCN1c2ccccc2CCc2ccccc21` [Imipramine chlorhydrate, imipramine], the protéolyse [3] was 20 % de la protéolyse du témoin, the “Augmentation de la tension développée par le muscle EDL sur animaux vivants” value ([4]; tested at 6 weeks) was 20% and the “Augmentation du score avec le test d'agrippement” value ([4]; tested at 6 weeks) was 48%. For the same compound, the “Augmentation de la tension maximale développée par le muscle isolé” value ([4]; triton-skinned fibres) was 50%, the “Diminution de la dégénérescence en %” value [1, 9] was 37% and the “Pourcentage d'animaux paralysés à J7” value [1, 9] was 65%. For the same compound, the “Réduction de la dispersion de taille des fibres (marqueur de dégénérescence)” value [5] was 26%.

`CN(C)CCC=C1c2ccccc2CCc2ccccc21` [Amytriptyline chlorhydrate, amitriptyline] was tested, and the “Diminution de la dégénérescence en %” value [1, 9] was 61% and the “Pourcentage d'animaux paralysés à J7” value [1, 9] was 52%.

For `CC(CN(C)C)CN1c2ccccc2CCc2ccccc21` (stereo not shown) [Trimipramine maleate, trimipramine], the nécrose du diaphragme [6] was “réduit la nécrose du diaphragme”, the “Diminution de la dégénérescence en %” value [1, 10] was 53% and the “Pourcentage d'animaux paralysés à J7” value [1, 10] was 60%. For the same compound, the “nombre de fibres centronucléées” value ([2]; 15 mg/kg/jour oral in food, result in words) was “réduit”.
